Reference: PMC4701221, “Novel Promising Estrogenic Receptor Modulators: Cytotoxic and Estrogenic Activity of Benzanilides and Dithiobenzanilides” (PLoS ONE, 2016)
“Also recorded” adds a separate entry of the source.

Experiments:
[1] = tested on: A549 cells; experiment: MTT assay, A549; type: cell-based; settings: Homo sapiens, 72 h, lung adenocarcinoma, read-out: Cytotoxic activity IC50, A549
Procedure: (§1) The cell lines used in the cytotoxicity study, besides MCF-12A, were purchased from European Collection of Cell Culture (ECACC, Salisbury, UK): HEK293 (human embryonic kidney, ATTC no. CRL-1573), A549 (Human lung carcinoma, ECACC no. 86012804), CCD39Lu (Human lung fibroblasts, ECACC no. 90110512), MCF-7 (Human breast adenocarcinoma, ECACC no. 86012803) and MDA-MB-231 (Human breast adenocarcinoma ECACC no. 92020424). Cell lines were cultured in DMEM medium without phenol red and supplemented with 10% (v/v) FBS, 1% penicillin-streptomycin and 1% L-glutamine. MCF-12A (ATTC no. […]) was purchased from American Type Culture Collection (ATCC Manassas, VA 20110 USA). MCF-12A cells were kept in 1:1 mixture of Dulbecco’s modified Eagle’s medium and Ham’s F12 medium, 20 ng/ml human epidermal growth factor, 100 ng/ml cholera toxin, 0.01 mg/ml bovine insulin, 500 ng/ml hydrocortisone and 5% horse serum. All cell lines were cultured at 37°C, in a humidified atmosphere containing 5% CO2.
(§2) Compounds were dissolved in DMSO to the final concentration of […]. A549, CCD39Lu, MCF-7, MDA-MB-231 and MCF-12A cells were seeded in 96 wells plates at density 2x10^4 cells/well and incubated overnight as described above. Subsequently, cells were treated with tested compounds at concentrations: 100 μM; 50 μM; 25μM; 12.5μM; 6 μM; 3 μM; 1.5 μM. […] Cells were incubated 72 h at 37°C in a humidified atmosphere containing 5% CO2 in the cell culture media appropriate for each cell line. Then, the medium was aspirated and 170 μl MTT solution (5mg/ml) was added to each well. Plates were incubated for 2 hours at 37°C, and then plates were centrifuged at 1200 rpm for 3 minutes. The formazan crystals were dissolved in 200 μl DMSO and plates were further agitated on a plate shaker at 300–500 rpm for 10 minutes. Absorbance at 570 nm (with reference wavelenght 650 nm) was measured using a plate reader (Biotek Instruments, Elx-800). Cell viability was calculated as a percentage relative to the control.

[2] = tested on: MDA-MB-231 cells; experiment: MTT assay, MDA-MB-231; type: cell-based, human; settings: Homo sapiens, MDA-MB-231, 72 h, estrogen independent breast adenocarcinoma, read-out: Cytotoxic activity IC50, MDA-MB-231
Procedure: as §1, §2

[3] = tested on: MCF-7 cells; experiment: MTT assay, MCF-7; type: cell-based, human; settings: for IC50: Homo sapiens, MCF7, 72 h, estrogen dependent breast adenocarcinoma, read-out: Cytotoxic activity IC50, MCF-7; for Activity in MTT assay (in words), MCF-7: 72 h
Procedure: as §1, §2

[4] = MTT assay, CCD39Lu; type: cell-based; settings: human, CCD39Lu cells (non-tumorigenic lung fibroblasts), read-out: Cytotoxic activity IC50, CCD39Lu
Procedure: as §1, §2

[5] = MTT assay, MCF-12A; type: cell-based; settings: human, MCF-12A cells (non-tumorigenic breast epithelial), read-out: Cytotoxic activity IC50, MCF-12A
Procedure: as §1, §2

[6] = tested on: MCF-7 cells; experiment: LDH release assay, MCF-7; type: cell-based, human; settings: 72 h, Fig 2
Procedure: Cytotoxicity was evaluated by measuring the cell membrane permeability, using a LDH assay kit purchased from Cayman Chemical (Ann Arbor USA). The LDH assay was performed for MCF-7 and MDA-MB-231 cells (seeded at 2×10^4 density). As a positive control cell permeabilization with 1%Triton X-100 was used. The assay was performed 72h after start the incubation. Briefly, the plates were centrifuged at 400 ×g for 5 minutes, and 100 μL of supernatant were transferred from each well to the new 96-well plate and analyzed according to the manufacturer’s protocol. 100 μL of reaction mixture, containing lactic acid, NAD^+, tetrazolium salt and diaphorase, was added to each well. Plates were incubated on an orbital shaker for 30 minutes at room temperature and the absorbance at 490 nm was measured with a plate reader (Biotek Instruments, Elx-800). Results were expressed as a percentage of the total value of the positive control.

[7] = tested on: MCF-7 cells; experiment: Sulphorodamine B assay, MCF-7; type: cell-based, human; settings: 72 h, Fig 2
Procedure: In addition to the MTT assay, cell viability was measured by the Sulphorodamine B assay according to Vichai and Kirtikara. The MCF-7 and MDA-MB-23 cells were seeded and treated as for the MTT assay. After incubation the medium was removed and the cells were fixed with cold (4°C) trichloroacetic acid (final concentration 10%) for 1h. Than plates were washed 4 times with water and stained for 30 min, following by staining with sulforhodamine B (SRB) 0.4% in 1% acetic acid solution at room temperature for 20 min. After staining, the SRB solution was removed and the plates washed 5 times with 1% acetic acid dried. Bound SRB was solubilized with 200 μl 10 mM unbuffered Tris-base solution and plates were shaked for 10 min. The absorbance at 510 nm was measured using a plate reader (Biotek Instruments, Elx-800).

[8] = target: T1, human ERα receptor (Homo sapiens, UniProt P03372); experiment: Estrogen Receptor luciferase assay in HEK293 cells transfected with ERα; type: cell-based; settings: HEK293 transfected with ERα and luciferase reporter, compared with estradiol, Fig 3A/3B
T1 construct: host or cells: HEK293
T1 sequence (P03372 1-595): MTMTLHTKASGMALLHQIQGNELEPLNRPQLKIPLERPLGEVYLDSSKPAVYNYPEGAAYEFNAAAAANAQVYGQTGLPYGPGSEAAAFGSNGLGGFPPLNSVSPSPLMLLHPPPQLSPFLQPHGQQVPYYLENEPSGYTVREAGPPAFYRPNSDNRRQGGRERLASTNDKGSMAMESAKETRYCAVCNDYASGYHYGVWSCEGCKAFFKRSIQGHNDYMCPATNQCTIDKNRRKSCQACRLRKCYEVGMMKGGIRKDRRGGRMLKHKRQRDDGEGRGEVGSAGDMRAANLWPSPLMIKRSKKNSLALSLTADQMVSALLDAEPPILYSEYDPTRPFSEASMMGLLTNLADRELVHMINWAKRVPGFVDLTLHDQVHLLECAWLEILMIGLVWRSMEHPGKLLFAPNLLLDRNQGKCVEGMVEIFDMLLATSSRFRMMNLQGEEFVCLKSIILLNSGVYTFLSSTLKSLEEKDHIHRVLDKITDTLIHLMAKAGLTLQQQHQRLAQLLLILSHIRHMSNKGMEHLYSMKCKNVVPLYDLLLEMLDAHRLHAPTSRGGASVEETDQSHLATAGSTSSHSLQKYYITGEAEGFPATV
Text: (§3) To obtain a eukaryotic vector expressing only the ER-α nuclear receptor, a construct was designed by cloning a KpnI-BamHI fragment from plasmid pEGFP-C1-ERα containing the ERα coding sequence that includes a stop signal into the pEGFP-N3 plasmid (Clontech Laboratories, Palo Alto, CA) under the control of the CMV promoter. This construction was termed pEGFP-N-ERα, and although it encoded both human ERα receptor and GFP protein, only the former is expressed. For mock transfections, pEGFP-N3 plasmid was digested with BglII and NotI and religated after polishing DNA ends to remove GFP coding sequence. Plasmid sequence was confirmed by automatic sequencing. Prior to transfection, cells were seeded in 48 well plates at density of 1.5 x 10^4 cells/well and incubated for 24 h to reach a cell confluence of 80–90%. […] MCF-7 cells, which endogenously express ERα receptor, were transfected with p3xERRE/ERE-luciferase plus the pRLTK Renilla luciferase control plasmid (95:5). Firefly and Renilla luciferase activities were measured using the Dual Luciferase Assay System (Promega, Madison, WI, USA), following a standard protocol using a Sirius L luminometer (Berthold Technologies, Bad Wildbad, Germany). Data were expressed as relative changes in luciferase activity and normalized to 100%.

[9] = target: T2, estrogen receptor (Homo sapiens, UniProt P03372); experiment: Estrogen Receptor luciferase assay in MCF-7 cells (endogenous ER); type: cell-based; settings: MCF-7 transfected with p3xERRE/ERE-luciferase, Fig 3C
T2 construct: MCF-7 cells, which endogenously express ERα receptor; endogenous in cells; host or cells: MCF-7
T2 sequence (P03372 1-595): T1 sequence (P03372 1-595)
Text: as §3

For `COc1cc(NC(=S)c2cccc(NC(=S)c3cc(OC)c(OC)c(OC)c3)c2)cc(OC)c1OC` [Compound 20], the IC50 [1] was > 100 µM, the IC50 [2] was > 100 µM and the IC50 [3] was > 100 µM. For the same compound, the IC50 at 72 h [4] was > 100 µM and the IC50 at 72 h [5] was > 100 µM.

For `COc1cc(NC(=S)c2ccccc2NC(=S)c2cc(OC)c(OC)c(OC)c2)cc(OC)c1OC` [Compound 13], the IC50 [1] was > 100 µM, the IC50 [2] was > 100 µM and the IC50 [3] was > 100 µM. For the same compound, the IC50 at 72 h [4] was > 100 µM and the IC50 at 72 h [5] was > 100 µM.

In the case of `O=C(Nc1ccccc1C(=O)Nc1cc(F)c(F)c(F)c1)c1cc(F)c(F)c(F)c1` [Compound 9], the IC50 [1] is reported as > 100 µM, the IC50 [2] is reported as > 100 µM and the IC50 [3] is reported as > 100 µM. For the same compound, the IC50 at 72 h [4] was > 100 µM and the IC50 at 72 h [5] was > 100 µM.

In the case of `COc1ccc(NC(=O)c2ccccc2NC(=O)COC(C)=O)cc1` [Compound 19], the IC50 [1] is reported as 72.4 µM, the IC50 [2] is reported as > 100 µM and the IC50 [3] is reported as > 100 µM. For the same compound, the IC50 at 72 h [4] was 47.9 µM and the IC50 at 72 h [5] was > 100 µM.

For `COc1ccc(NC(=S)c2cccc(NC(=S)c3ccc(OC)cc3)c2)cc1` [Compound 15], the “LDH release, MCF-7” value [6] was “relatively low increase”, the “Effect in SRB assay, MCF-7” value [7] was “strong effect” and the IC50 [1] was > 100 µM. For the same compound, the IC50 [2] was > 100 µM, the “Activity in MTT assay (in words), MCF-7” value [3] was “significant activity; also recorded: strong effect” and the IC50 [3] was 17.7 µM. For the same compound, the “ER dependent transcriptional activity” value [8] was “capable to mediate ER dependent transcriptional activity in a similar mode than estradiol”, the IC50 at 72 h [4] was > 100 µM and the IC50 at 72 h [5] was > 100 µM.

In the case of `COc1ccc(NC(=O)c2cc(C)c(C)cc2[N+](=O)[O-])cc1` [Compound 5], the IC50 [1] is reported as > 100 µM, the IC50 [2] is reported as 92 µM and the IC50 [3] is reported as > 100 µM. For the same compound, the IC50 at 72 h [4] was > 100 µM and the IC50 at 72 h [5] was > 100 µM.

For `COc1cc(NC(=O)c2ccccc2[N+](=O)[O-])cc(OC)c1OC` [Compound 7], the IC50 [1] was 93.1 µM, the IC50 [2] was > 100 µM and the IC50 [3] was > 100 µM. For the same compound, the IC50 at 72 h [4] was > 100 µM and the IC50 at 72 h [5] was > 100 µM.

For `COc1cc(NC(=O)c2cc(C)c(C)cc2[N+](=O)[O-])cc(OC)c1OC` [Compound 6], the IC50 [1] was > 100 µM, the IC50 [2] was > 100 µM and the “Activity in MTT assay (in words), MCF-7” value [3] was “significant activity”. The IC50 [3] was 24.7 µM, the “ER dependent transcriptional activity” value [8] was “capable to mediate ER dependent transcriptional activity in a similar mode than estradiol” and the IC50 at 72 h [4] was > 100 µM. The IC50 at 72 h [5] was > 100 µM and the “Transcriptional (luciferase) activity in MCF-7” value [9] was “much lower”.

Compound `COc1ccc(NC(=O)c2ccccc2[N+](=O)[O-])cc1` [Compound 1] has an IC50 [1] of 92.4 µM, an IC50 [2] of 79.8 µM and an IC50 [3] of 74.9 µM. For the same compound, the IC50 at 72 h [4] was 96.3 µM and the IC50 at 72 h [5] was > 100 µM.
